Test [1] addresses Cyclin-dependent kinase 3 (Homo sapiens, UniProt Q00526). Nature of the test: Inhibition of Cyclin-dependent kinase 3.
For test [2], the target named is T1, Interleukin-1 receptor-associated kinase 4 (Homo sapiens, UniProt Q9NWZ3).
T1 sequence (Q9NWZ3 whole entry): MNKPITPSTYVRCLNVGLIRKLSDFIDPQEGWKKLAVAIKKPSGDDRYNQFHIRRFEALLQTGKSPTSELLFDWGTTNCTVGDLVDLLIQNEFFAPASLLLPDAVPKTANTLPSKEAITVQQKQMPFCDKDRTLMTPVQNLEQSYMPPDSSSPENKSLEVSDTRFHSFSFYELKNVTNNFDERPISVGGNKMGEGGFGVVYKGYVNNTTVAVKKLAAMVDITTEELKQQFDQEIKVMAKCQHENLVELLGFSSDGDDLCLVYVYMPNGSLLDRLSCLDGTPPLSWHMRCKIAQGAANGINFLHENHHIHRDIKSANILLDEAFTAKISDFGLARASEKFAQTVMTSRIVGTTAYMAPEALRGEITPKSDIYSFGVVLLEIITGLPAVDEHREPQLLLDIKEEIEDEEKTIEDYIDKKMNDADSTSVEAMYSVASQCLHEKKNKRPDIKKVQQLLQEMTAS
The test is described as follows: Inhibition of Interleukin-1 receptor-associated kinase-4.

The target in test [3] is T2, Inhibitor of nuclear factor kappa-B kinase subunit beta (Homo sapiens, UniProt O14920).
T2 sequence (O14920 whole entry): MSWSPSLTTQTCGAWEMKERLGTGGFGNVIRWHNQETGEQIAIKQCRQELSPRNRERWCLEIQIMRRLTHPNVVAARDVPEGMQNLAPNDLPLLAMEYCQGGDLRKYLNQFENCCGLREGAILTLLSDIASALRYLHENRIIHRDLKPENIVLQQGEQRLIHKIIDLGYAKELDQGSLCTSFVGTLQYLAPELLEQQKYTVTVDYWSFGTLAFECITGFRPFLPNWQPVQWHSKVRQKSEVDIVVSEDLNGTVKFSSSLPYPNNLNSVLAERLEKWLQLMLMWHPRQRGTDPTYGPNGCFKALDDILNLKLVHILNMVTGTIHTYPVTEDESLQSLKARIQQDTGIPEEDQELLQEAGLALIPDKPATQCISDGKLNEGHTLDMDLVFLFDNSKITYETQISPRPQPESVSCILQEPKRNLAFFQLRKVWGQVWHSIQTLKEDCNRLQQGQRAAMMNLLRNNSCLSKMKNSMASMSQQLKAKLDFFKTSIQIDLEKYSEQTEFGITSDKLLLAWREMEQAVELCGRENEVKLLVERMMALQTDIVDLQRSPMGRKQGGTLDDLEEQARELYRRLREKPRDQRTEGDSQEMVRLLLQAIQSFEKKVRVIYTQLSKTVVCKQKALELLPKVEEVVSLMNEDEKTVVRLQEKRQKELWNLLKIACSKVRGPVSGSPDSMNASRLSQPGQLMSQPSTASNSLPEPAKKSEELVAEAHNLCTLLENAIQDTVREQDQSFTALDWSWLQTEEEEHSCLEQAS
The test is described as follows: Inhibition of I-kappa-B-kinase beta.

Bounds are passed on as bounds.

Usually IC50 stands for the concentration that gives 50% inhibition. A lower IC50 goes with higher potency.

Cyclin-dependent kinase 3, sequence (Q00526 whole entry): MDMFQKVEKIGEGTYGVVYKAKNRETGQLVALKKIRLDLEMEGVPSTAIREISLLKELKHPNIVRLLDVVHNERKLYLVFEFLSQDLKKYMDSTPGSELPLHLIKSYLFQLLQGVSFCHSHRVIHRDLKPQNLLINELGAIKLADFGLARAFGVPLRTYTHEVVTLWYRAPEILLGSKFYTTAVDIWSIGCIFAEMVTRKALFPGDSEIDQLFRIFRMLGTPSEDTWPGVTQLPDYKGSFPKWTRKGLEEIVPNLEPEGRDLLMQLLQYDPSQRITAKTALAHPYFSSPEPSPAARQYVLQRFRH

`C[C@H](O)CNc1cc(-c2[nH]c3cccnc3c2-c2ccc(F)cc2)ccn1`: the IC50 is greater than 25 µM in test [1], greater than 30 µM in test [2] and greater than 30 µM in test [3].

The values are drawn from ChEMBL document CHEMBL1145138, “Design and synthesis of 4-azaindoles as inhibitors of p38 MAP kinase” (J Med Chem, 2003).
